US8946438B2, “Benzamides, production thereof, and use thereof as medicaments” (Boehringer Ingelheim International GmbH, priority 2008, dated 2015)

Target: p38 MAP-kinase (Homo sapiens, UniProt Q16539)
Test: Enzymatic assay: inhibition of p38 MAP-kinase (phosphorylation of GST-tagged ATF2, chemoluminescence bead readout)
Assay type: biochemical
Conditions: inhibitor 1 μM; activated p38 MAP-kinase 1 nM; 4 h preincubation; ATP 100 μM; ATF2 10 nM; read-out: % inhibitory effect at 1 μM
How it was run: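 Activated human p38 MAP-kinase (1 nM) preincubated 4 h at ambient temperature with compound at 1 μM in HEPES pH 7, MgCl2, DTT, Tween20. Then reacted 1 h with GST-ATF2 (10 nM) and ATP (100 μM). Phospho-ATF2 read by bead chemoluminescence at 520-620 nm, given as % inhibition at 1 μM versus kinase-free background.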

p38 MAP-kinase, sequence (Q16539 whole entry): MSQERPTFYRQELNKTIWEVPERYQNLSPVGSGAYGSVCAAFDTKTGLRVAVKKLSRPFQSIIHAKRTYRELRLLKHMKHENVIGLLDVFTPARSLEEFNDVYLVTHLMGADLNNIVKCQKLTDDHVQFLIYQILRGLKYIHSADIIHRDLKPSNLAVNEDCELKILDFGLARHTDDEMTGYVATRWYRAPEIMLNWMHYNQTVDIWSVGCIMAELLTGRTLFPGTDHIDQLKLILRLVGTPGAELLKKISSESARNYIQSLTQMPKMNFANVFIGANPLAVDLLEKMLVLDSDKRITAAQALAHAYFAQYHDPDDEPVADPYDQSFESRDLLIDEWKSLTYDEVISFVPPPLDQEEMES

Row | SMILES | inhibition at 1 µM [%]
1 | COc1c(NC(=O)c2ccc(C)c(Oc3ccnc(CNC4CCN(C)C4)n3)c2)cc(C(C)(C)C)cc1NS(C)(=O)=O (centres unmarked) [8(23), N-(5-tert-butyl-3-methanesulphonylamino-2-methoxy-phenyl)-4-methyl-3-{2-[(1-methyl-pyrrolidin-3-ylamino)-methyl]-pyrimidin-4-yloxy}-benzamide] | 97.8
2 | COc1c(NC(=O)c2ccc(C)c(Oc3ccnc(CNCCN(C)C)c3)c2)cc(C(C)(C)C)cc1NS(C)(=O)=O [8(27), N-(5-tert-butyl-3-methanesulphonylamino-2-methoxy-phenyl)-3-{2-[(2-dimethylamino-ethylamino)-methyl]-pyridin-4-yloxy}-4-methyl-benzamide] | 98.4
3 | COc1c(NC(=O)c2cc(C)cc(Oc3ccnc(CN4CCN(C)CC4)n3)c2)cc(C(C)(C)C)cc1NS(C)(=O)=O [8(28), N-(5-tert-butyl-3-methanesulphonylamino-2-methoxy-phenyl)-3-methyl-5-[2-(4-methyl-piperazin-1-ylmethyl)-pyrimidin-4-yloxy]-benzamide] | 81.8
4 | COc1c(NC(=O)c2ccc(C)c(Oc3cc(CNCCN(C)C)ncn3)c2)cc(C(C)(C)C)cc1NS(C)(=O)=O [8(29), N-(5-tert-butyl-3-methanesulphonylamino-2-methoxy-phenyl)-3-{6-[(2-dimethylamino-ethylamino)-methyl]-pyrimidin-4-yloxy}-4-methyl-benzamide] | 89
5 | COc1c(NC(=O)c2ccc(Cl)c(Oc3cc(CNCCN(C)C)ncn3)c2)cc(C(C)(C)C)cc1NS(C)(=O)=O [8(31), N-(5-tert-butyl-3-methanesulphonylamino-2-methoxy-phenyl)-4-chloro-3-{6-[(2-dimethylamino-ethylamino)-methyl]-pyrimidin-4-yloxy}-benzamide] | 86.5
6 | COc1c(NC(=O)c2ccc(Cl)c(Oc3cc(CN(C)CCN(C)C)ncn3)c2)cc(C(C)(C)C)cc1NS(C)(=O)=O [8(32), N-(5-tert-butyl-3-methanesulphonylamino-2-methoxy-phenyl)-4-chloro-3-(6-{[(2-dimethylamino-ethyl)-methyl-amino]-methyl}-pyrimidin-4-yloxy)-benzamide] | 92.6
7 | COc1c(NC(=O)c2ccc(Cl)c(Oc3ccnc(CNCCN(C)C)c3)c2)cc(C(C)(C)C)cc1NS(C)(=O)=O [8(34), N-(5-tert-butyl-3-methanesulphonylamino-2-methoxy-phenyl)-4-chloro-3-{2-[(2-dimethylamino-ethylamino)-methyl]-pyridin-4-yloxy}-benzamide] | 99.3
8 | COc1c(NC(=O)c2ccc(Cl)c(Oc3ccnc(CN4CCCN(C)CC4)n3)c2)cc(C(C)(C)C)cc1NS(C)(=O)=O [8(35), N-(5-tert-butyl-3-methanesulphonylamino-2-methoxy-phenyl)-4-chloro-3-[2-(4-methyl-[1,4]diazepan-1-ylmethyl)-pyrimidin-4-yloxy]-benzamide] | 98.6
9 | COc1c(NC(=O)c2ccc(Cl)c(Oc3cc(CN4CCCN(C)CC4)ncn3)c2)cc(C(C)(C)C)cc1NS(C)(=O)=O [8(38), N-(5-tert-butyl-3-methanesulphonylamino-2-methoxy-phenyl)-4-chloro-3-[6-(4-methyl-[1,4]diazepan-1-ylmethyl)-pyrimidin-4-yloxy]-benzamide] | 98.8
10 | COc1c(NC(=O)c2ccc(Cl)c(Oc3ccnc(CN4CCCN(C)CC4)c3)c2)cc(C(C)(C)C)cc1NS(C)(=O)=O [8(39), N-(5-tert-butyl-3-methanesulphonylamino-2-methoxy-phenyl)-4-chloro-3-[2-(4-methyl-[1,4]diazepan-1-ylmethyl)-pyridin-4-yloxy]-benzamide] | 98.9
11 | COc1c(NC(=O)c2ccc(C)c(Oc3ccnc(CC4CCN(C)CC4)n3)c2)cc(C(C)(C)C)cc1NS(C)(=O)=O [9(1), N-(5-tert-butyl-3-methanesulphonylamino-2-methoxy-phenyl)-4-methyl-3-[2-(1-methyl-piperidin-4-ylmethyl)-pyrimidin-4-yloxy]-benzamide] | 99.9
12 | COc1c(NC(=O)c2ccc(C)c(Oc3ccnc(CC4CCN(C)CC4)c3)c2)cc(C(C)(C)C)cc1NS(C)(=O)=O [9(2), N-(5-tert-butyl-3-methanesulphonylamino-2-methoxy-phenyl)-4-methyl-3-[2-(1-methyl-piperidin-4-ylmethyl)-pyridin-4-yloxy]-benzamide] | 98.5
13 | CCCCS(=O)(=O)Nc1cc(C(C)(C)C)cc(NC(=O)c2ccc(C)c(Oc3ccnc(CC4CCNCC4)c3)c2)c1OC [11(1), N-[3-(butan-1-sulphonylamino)-5-tert-butyl-2-methoxy-phenyl]-4-methyl-3-(2-piperidin-4-ylmethyl-pyridin-4-yloxy)-benzamide] | 99.4

Other lines, results leading:

Row | inhibition at 1 µM [%] | SMILES
14 | 92.4 | COc1c(NC(=O)c2ccc(C)c(Oc3ccnc(CN(C)CCN(C)C)n3)c2)cc(C(C)(C)C)cc1NS(C)(=O)=O [8(24), N-(5-tert-butyl-3-methanesulphonylamino-2-methoxy-phenyl)-3-(2-{[N-(2-dimethylamino-ethyl)-N-methyl-amino]-methyl}-pyrimidin-4-yloxy)-4-methyl-benzamide]
15 | 98.6 | COc1c(NC(=O)c2ccc(C)c(Oc3ccnc(CNCCN(C)C)n3)c2)cc(C(C)(C)C)cc1NS(C)(=O)=O [8(25), N-(5-tert-butyl-3-methanesulphonylamino-2-methoxy-phenyl)-3-{2-[(2-dimethylamino-ethylamino)-methyl]-pyrimidin-4-yloxy}-4-methyl-benzamide]
16 | 97.7 | COc1c(NC(=O)c2ccc(C)c(Oc3ccnc(CN(C)CCN(C)C)c3)c2)cc(C(C)(C)C)cc1NS(C)(=O)=O [8(26), N-(5-tert-butyl-3-methanesulphonylamino-2-methoxy-phenyl)-3-(2-{[(2-dimethylamino-ethyl)-methyl-amino]-methyl}-pyridin-4-yloxy)-4-methyl-benzamide]
17 | 91.3 | COc1c(NC(=O)c2ccc(C)c(Oc3cc(CN(C)CCN(C)C)ncn3)c2)cc(C(C)(C)C)cc1NS(C)(=O)=O [8(30), N-(5-tert-butyl-3-methanesulphonylamino-2-methoxy-phenyl)-3-(6-{[(2-dimethylamino-ethyl)-methyl-amino]-methyl}-pyrimidin-4-yloxy)-4-methyl-benzamide]
18 | 97.1 | COc1c(NC(=O)c2ccc(Cl)c(Oc3ccnc(CN(C)CCN(C)C)c3)c2)cc(C(C)(C)C)cc1NS(C)(=O)=O [8(33), N-(5-tert-butyl-3-methanesulphonylamino-2-methoxy-phenyl)-4-chloro-3-(2-{[(2-dimethylamino-ethyl)-methyl-amino]-methyl}-pyridin-4-yloxy)-benzamide]
19 | 82.6 | COc1c(NC(=O)c2ccc(Cl)c(Oc3ccnc(CN(C)CCN(C)C)n3)c2)cc(C(C)(C)C)cc1NS(C)(=O)=O [8(36), N-(5-tert-butyl-3-methanesulphonylamino-2-methoxy-phenyl)-4-chloro-3-(2-{[(2-dimethylamino-ethyl)-methyl-amino]-methyl}-pyrimidin-4-yloxy)-benzamide]
20 | 91.3 | COc1c(NC(=O)c2ccc(Cl)c(Oc3ccnc(CNCCN(C)C)n3)c2)cc(C(C)(C)C)cc1NS(C)(=O)=O [8(37), N-(5-tert-butyl-3-methanesulphonylamino-2-methoxy-phenyl)-4-chloro-3-{2-[(2-dimethylamino-ethylamino)-methyl]-pyrimidin-4-yloxy}-benzamide]
